Source: US20100254928A1, “NOVEL COMPOSITION CONTAINING OZONIZED SURFACTANT” (priority 2007, published 2010)
Values joined by “and” are separate entries in the source; they are usually repeats but may differ in a detail not shown here. Identical values can stand only once.

Assays:
[1] = Temporal change in oxidizing property (iodine titration method); assay type: physicochemical; conditions: 1% aqueous solution, 25° C., 700 days
Source text: After deaerating the obtained aqueous ozonized surfactant solution to remove dissolved ozone gas by helium purging, the oxidizing property of the aqueous ozonized surfactant solution can be determined by the iodine titration method (see Non Patent Literature 1). Whether or not the aqueous ozonized surfactant solution maintains a function as a surfactant can be evaluated by checking whether or not frothing, which is a characteristic of surfactants, occurs when the solution is agitated or vibrated.
Meanwhile, oxygen was supplied from an oxygen cylinder into an ozonizer (ozonizer GR-RB made by Sumitomo Precision Products Co., Ltd.) at an oxygen flow rate of 0.3 L/min to ozonize the oxygen to produce ozone gas. Then, the ozone gas was dissolved in the above-described aqueous solution in a dissolving module (SEK model made by ERC Technology), and the aqueous solution was circulated at a flow rate of 1 L/min. […] Further, in 30 minutes, the concentration increased to 25 ppm (see FIG. 2). After deaerating the aqueous solution that had undergone about 30-minute ozone treatment to remove dissolved ozone gas by helium purging, oxidizing property of the aqueous solution was determined by the iodine titration method. As a result, the aqueous solution had oxidizing property, and frothing, which is a characteristic of surfactants, was observed. The results confirmed that ozonized Tween 80 had been produced. Further, a temporal change in the oxidizing property of the aqueous solution was determined by the iodine titration method at 25° C. for 20 days. As a result, the percentage of oxidizing property measured after 20 days to that measured just after preparation was 109%.
The solution A was diluted to a 1% aqueous solution, and a temporal change in the oxidizing property of the aqueous solution was determined by the iodine titration method at 25° C. for 700 days. As a result, the percentage of oxidizing property measured after 700 days to that measured just after preparation was 101%.

[2] = test system: Cladosporium cladosporioides; test: Minimum bactericidal concentration test; assay type: cell-based; conditions: 96 h, 25° C.
Method: (§1) Here, the ozonized surfactant was diluted 100-fold, and therefore the ozonized surfactant was considered to be ineffective. […] [table]

Escherichia coli = test: Minimum bactericidal concentration test; assay type: cell-based; conditions: 24 h, 30° C.
Method: as §1

Saccharomyces cerevisiae = test: Minimum bactericidal concentration test; assay type: cell-based; conditions: 48 h, 28° C.
Method: as §1

Staphylococcus aureus = test: Minimum bactericidal concentration test; assay type: cell-based; conditions: 24 h, 37° C.
Method: as §1

[3] = test system: Trichophyton mentagrophytes; test: Minimum bactericidal concentration test; assay type: cell-based; conditions: 96 h, 25° C.
Method: as §1

[4] = test system: Sprague-Dawley female rats; test: Single dose oral toxicity test; assay type: in vivo; parameters: key to General conditions, 3 hours after administration / General conditions, 1 hour after administration / General conditions, 2 hours after administration: D: diarrhea; LS: loose stool; RF: reddish feces; DL: decrease in locomotor activity; *: the result was observed at 4 hours after administration; conditions: for rats that developed symptoms on the administration day: transient, resolved by the 2nd day
Method: In order to roughly determine the lethal dose of the ozonized surfactant used for the present invention, an acute single dose oral toxicity test was performed according to “OECD Guideline for Testing of Chemicals, Acute Oral Toxicity-Acute Toxic Class Method”, Revised Guideline 423, adopted on Mar. 22, 1996 and revised on Dec. 17, 2001) by administering the solution A described in Example 4 to 12 Sprague-Dawley [Ctr: CD (SD), SPF ] female rats. Rats were divided into 4 groups each consisting of 3 rats. For each rat, an appropriate liquid volume was calculated based on individual body weight so that the solution A in an amount equivalent to 300 mg/kg of the ozonized surfactant was administered to 2 groups (6 rats) and the solution in an amount equivalent to 2000 mg/kg was administered to the other 2 groups (6 rats), with the use of a gastric tube for rats. (These groups will be hereinafter referred to as 300 mg/kg administration groups and 2000 mg/kg administration groups, respectively.) Counting the administration day as the 1st day, general conditions of the rats were observed until the 15th day, and the number of dead individuals was counted. The general conditions of all the animals were observed once before administration, intermittently for 1 hour after administration, and subsequently about every hour until 3 hours (of some rats until 4 hours) after administration. Since the 2nd day, the observation was repeated daily.
In the table, D, LS, RF and DL mean diarrhea, loose stool, reddish feces and decrease in locomotor activity, respectively.

[5] = test system: mold (filamentous fungus); test: Evaluation of antiseptic activity in thickener solution; assay type: cell-based; conditions: 0.1% in 3.5% Carbopol ETD2020 aqueous solution, 25° C.
Method: In order to check the antiseptic performance of ozonized surfactants, the ozonized surfactants were added to a substance susceptible to mold. […] Into a 100 mL-glass bottle, 50 mL of the sample was charged. The bottles were kept at 25° C. in a thermostatic air chamber, and temporal changes were visually observed. […] The mold-like material was removed and examined under a 700-power microscope. As a result, spores were detected and the material was identified as a filamentous fungus. The above results confirmed the antiseptic activity of the ozonized surfactants.

slug = test: Insecticidal activity: test of killing slugs; assay type: in vivo; conditions: 1% aqueous solution, 2 pushes: 1.88 mL sprayed from 15 cm above
Method: In order to check the insect control performance of the ozonized surfactant, a test of killing slugs was performed. A slug was put into a glass petri dish. Onto the slug, a 1% aqueous solution of the ozonized surfactant obtained in Example 4, 5, 7, 9 or 10 (2 pushes: 1.88 mL) was sprayed from 15 cm above. After that, the time elapsed until the slug died (the motion stopped) was measured. As a control, the same evaluation was simultaneously performed with a commercial insecticide (product name: NEW Namekuji (slug) Spray, made by Sumitomo Chemical Garden Products Inc., Lot No. 11.05 0806JE) containing a natural substituted phenol, a copper compound and an alcohol, as active ingredients.

[6] = 300 mg/kg administration group (6 rats)
[7] = 2000 mg/kg administration group (6 rats)
[8] = 2000 mg/kg oral, per animal, — = no symptom, listed as solution A

Substance: Ozonized POE (10 EO) oleyl ether [Example 4]
- percentage of oxidizing property measured after 700 days to that measured just after preparation [1]: 101%
- Minimum bactericidal concentration [2]: 0.18%
- Minimum bactericidal concentration (Escherichia coli): 0.30%
- Minimum bactericidal concentration (Saccharomyces cerevisiae): 0.03%
- Minimum bactericidal concentration (Staphylococcus aureus): 0.11%
- Minimum bactericidal concentration [3]: 0.03%
- Death until the 15th day [4, 6]: Death was not found
- rats that developed symptoms on the administration day [4, 6]: 1 rat
- General conditions, 3 hours after administration ([4]; 300 mg/kg oral, per animal, — = no symptom): LS*
- Decrease in locomotor activity (number of animals) ([4]; 2-15 days, all 12 rats): 0
- Diarrhea or loose stool (number of animals) ([4]; 2-15 days, all 12 rats): 0
- Reddish feces (number of animals) ([4]; 2-15 days, all 12 rats): 0
- Death until the 15th day [4, 7]: Death was not found
- rats that developed symptoms on the administration day [4, 7]: 5 rats
- General conditions, 1 hour after administration [4, 8]: D, DL and D, RF and D (2×)
- General conditions, 2 hours after administration [4, 8]: D
- General conditions, 3 hours after administration [4, 8]: D* and LS and D (2×)
- Body weight transition during the observation period ([4]; 300 and 2000 mg/kg, 15 days): favorable
- Decrease in locomotor activity (number of animals) ([4]; 1 hour, all 12 rats): 2
- Reddish feces (number of animals) ([4]; 1 hour, all 12 rats): 1
- Diarrhea or loose stool (number of animals) ([4]; 1 hour, all 12 rats (300 and 2000 mg/kg)): 4
- Decrease in locomotor activity (number of animals) ([4]; 2 hours, all 12 rats): 0
- Diarrhea or loose stool (number of animals) ([4]; 2 hours, all 12 rats): 3
- Reddish feces (number of animals) ([4]; 2 hours, all 12 rats): 0
- Decrease in locomotor activity (number of animals) ([4]; 3 hours, all 12 rats): 0
- Diarrhea or loose stool (number of animals) ([4]; 3 hours, all 12 rats): 5
- Reddish feces (number of animals) ([4]; 3 hours, all 12 rats): 0
- LD50 cut-off value ([4]; oral, rat): infinite
- acute toxicity classification of the GHS ([4]; oral, rat): Category 5 or does not correspond to any of the acute toxicity categories
- Antiseptic activity of thickener soln. (visually observed), 1 month after [5]: Good
- Antiseptic activity of thickener soln. (visually observed), 1 week after [5]: Good
- Death time of slug (slug): 564 s
